Test results taken from PMC10035947, “Development of novel anilinoquinazoline-based carboxylic acids as non-classical carbonic anhydrase IX and XII inhibitors” (Journal of Enzyme Inhibition and Medicinal Chemistry, 2023).
Read-outs that look alike come from different tables or passages of the source.

How the values were obtained:
Test in all cases: NCI SRB assay
[1] = test system: SR; type: cell-based, human; settings: for GI%: 10 μM; for Growth Percent: 1.00E-5 Molar
[2] = test system: NCI-H522; type: cell-based, human; settings: for GI%: NCI-H522, 10 μM; for Growth Percent: NCI-H522, 1.00E-5 Molar
[3] = test system: HCC-2998; type: cell-based, human; settings: for GI%: HCC-2998, 10 μM; for Growth Percent: HCC-2998, 1.00E-5 Molar; for CC50: read-out: LC50 (the source's name)
[4] = test system: SF-539; type: cell-based, human; settings: for GI%: SF-539, 10 μM; for Growth Percent: SF-539, 1.00E-5 Molar
[5] = test system: UACC-257; type: cell-based, human; settings: for GI%: UACC-257, 10 μM; for Growth Percent: UACC-257, 1.00E-5 Molar; for CC50: read-out: LC50 (the source's name)
[6] = test system: A498; type: cell-based, human; settings: for GI%: A498, 10 μM; for Growth Percent: A498, 1.00E-5 Molar; for CC50: read-out: LC50 (the source's name)
[7] = test system: TK-10; type: cell-based, human; settings: for GI%: TK-10, 10 μM; for Growth Percent: TK-10, 1.00E-5 Molar; for CC50: read-out: LC50 (the source's name)
[8] = test system: UO-31; type: cell-based, human; settings: for GI%: UO-31, 10 μM; for Growth Percent: UO-31, 1.00E-5 Molar; for CC50: read-out: LC50 (the source's name)
[9] = test system: MDA-MB-231; type: cell-based; settings: for GI%: MDA-MB-231, 10 μM; for Growth Percent: 1.00E-5 Molar; for CC50: read-out: LC50 (the source's name)
[10] = test system: MDA-MB-468; type: cell-based, human; settings: for GI%: MDA-MB-468, 10 μM; for Growth Percent: MDA-MB-468, 1.00E-5 Molar; for CC50: read-out: LC50 (the source's name)
[11] = test system: RXF 393; type: cell-based, human; settings: for CC50: read-out: LC50 (the source's name)
[12] = Homo sapiens, NCI-H522, NCI-H522, 5-dose
[13] = Homo sapiens, UO-31, UO-31, 5-dose
[14] = Homo sapiens, MDA-MB-468, MDA-MB-468, 5-dose

In the case of Cc1cccc(-c2nc(Nc3ccccc3C(=O)O)c3ccccc3n2)c1 [6a, 2-((2-(m-Tolyl)quinazolin-4-yl)amino)benzoic acid], the GI% [1] is reported as 77%, the “Growth Percent” value [1] is reported as 23.03% and the GI% [2] is reported as 40%. The “Growth Percent” value [2] was 59.94%, the GI% [3] was 73% and the “Growth Percent” value [3] was 27.10%. The GI% [4] was 52%, the “Growth Percent” value [4] was 47.66% and the GI% [5] was 51%. For the same molecule, the “Growth Percent” value [5] was 49.24%, the GI% [6] was 52% and the “Growth Percent” value [6] was 47.56%. The GI% [7] was “– (Only GI% higher than 20% are shown)”, the “Growth Percent” value [7] was 85.85% and the GI% [8] was 69%. For the same molecule, the “Growth Percent” value [8] was 31.01%, the GI% [9] was 34% and the “Growth Percent” value ([9]; MDA-MB-231/ATCC) was 66.08%. The GI% [10] was 115% and the “Growth Percent” value [10] was -15.06%.
With Cc1ccc(-c2nc(Nc3ccccc3C(=O)O)c3ccccc3n2)cc1 [6b, 2-((2-(p-Tolyl)quinazolin-4-yl)amino)benzoic acid] the GI% [1] was 81%, the “Growth Percent” value [1] was 18.56% and the LC50 (50% lethal concentration) ([1]; 5-dose) was under 100 µM. For the same molecule, the TGI ([1]; 5-dose) was under 100 µM, the TGI ([1]; 5-dose, listed as D - 835857) was over 1.00E-4 Molar and the GI50 ([1]; Homo sapiens, 5-dose) was 10.3 µM. It also gave an LC50 (50% lethal concentration) ([1]; Homo sapiens, 5-dose) of over 100 µM, a GI50 [2, 12] of 4.35 µM and an LC50 [2, 12] of over 100 µM. The GI% [2] was 67%, the “Growth Percent” value [2] was 33.17% and the GI50 ([2]; NCI-H522, 5-dose) was 4.4 µM. The LC50 ([2]; NCI-H522, 5-dose) was under 100 µM, the TGI ([2]; NCI-H522, 5-dose) was 27.1 µM and the TGI ([2]; NCI-H522, 5-dose, listed as D - 835857) was 2.71E-5 Molar. The GI% [3] was 95%, the “Growth Percent” value [3] was 5.44% and the TGI ([3]; HCC-2998, 5-dose) was 36.0 µM. It also gave a TGI ([3]; HCC-2998, 5-dose, listed as D - 835857) of 3.60E-5 Molar, a CC50 ([3]; HCC-2998, 5-dose) of under 100 µM and a CC50 ([3]; Homo sapiens, HCC 2998, HCC-2998, 5-dose) of over 100 µM. For the same molecule, the GI50 ([3]; Homo sapiens, HCC-2998, 5-dose) was 12.4 µM, the GI50 ([4]; Homo sapiens, SF-539, 5-dose) was 11.9 µM and the CC50 ([4]; Homo sapiens, SF-539, 5-dose, read-out: LC50 (the source's name)) was 67.2 µM. The GI% [4] was 79%, the “Growth Percent” value [4] was 21.26% and the TGI ([4]; SF-539, 5-dose) was 28.3 µM. It also gave a TGI ([4]; SF-539, 5-dose, listed as D - 835857) of 2.83E-5 Molar, a CC50 ([5]; Homo sapiens, UACC-257, UACC-257, 5-dose) of over 100 µM and a GI50 ([5]; Homo sapiens, UACC-257, 5-dose) of 15.3 µM. For the same molecule, the GI% [5] was 71%, the “Growth Percent” value [5] was 28.64% and the TGI ([5]; UACC-257, 5-dose) was 90.3 µM. It also gave a TGI ([5]; UACC-257, 5-dose, listed as D - 835857) of 9.03E-5 Molar, a CC50 ([5]; UACC-257, 5-dose) of under 100 µM and a GI% [6] of 78%. For the same molecule, the “Growth Percent” value [6] was 21.64%, the TGI ([6]; A498, 5-dose) was 58.1 µM and the TGI ([6]; A498, 5-dose, listed as D - 835857) was 5.81E-5 Molar. The CC50 ([6]; A498, 5-dose) was under 100 µM, the CC50 ([6]; Homo sapiens, A498, A498, 5-dose) was over 100 µM and the GI50 ([6]; Homo sapiens, A498, 5-dose) was 19.9 µM. It also gave a CC50 ([7]; Homo sapiens, TK-10, TK-10, 5-dose) of over 100 µM, a GI50 ([7]; Homo sapiens, TK-10, 5-dose) of 29.3 µM and a GI% [7] of 41%. For the same molecule, the “Growth Percent” value [7] was 58.93%, the TGI ([7]; TK-10, 5-dose) was under 100 µM and the TGI ([7]; TK-10, 5-dose, listed as D - 835857) was over 1.00E-4 Molar. For the same molecule, the CC50 ([7]; TK-10, 5-dose) was under 100 µM, the GI50 [8, 13] was 7.33 µM and the CC50 [8, 13] was over 100 µM. For the same molecule, the GI% [8] was 87%, the “Growth Percent” value [8] was 12.56% and the GI50 ([8]; UO-31, 5-dose) was 7.3 µM. It also gave a TGI ([8]; UO-31, 5-dose) of 77.9 µM, a TGI ([8]; UO-31, 5-dose, listed as D - 835857) of 7.79E-5 Molar and a CC50 ([8]; UO-31, 5-dose) of under 100 µM. It also gave a GI50 ([9]; Homo sapiens, MDA-MB-231) of 17.2 µM, a CC50 ([9]; Homo sapiens, MDA-MB-231, MDA-MB-231, 5-dose) of under 100 µM and a CC50 ([9]; Homo sapiens, MDA-MB-231, MDA-MB-231/ATCC, 5-dose) of over 100 µM. For the same molecule, the GI% [9] was 65%, the TGI ([9]; MDA-MB-231, 5-dose) was 59.7 µM and the “Growth Percent” value ([9]; MDA-MB-231/ATCC) was 35.40%. The TGI ([9]; MDA-MB-231/ATCC, 5-dose) was 5.97E-5 Molar, the GI50 [10, 14] was 8.29 µM and the CC50 [10, 14] was over 100 µM. The GI% [10] was 126%, the “Growth Percent” value [10] was -26.88% and the GI50 ([10]; MDA-MB-468, 5-dose) was 8.3 µM. For the same molecule, the TGI ([10]; MDA-MB-468, 5-dose, listed as D - 835857) was 4.23E-5 Molar, the CC50 ([10]; MDA-MB-468, 5-dose) was under 100 µM and the CC50 ([11]; Homo sapiens, RXF 393, RXF 393, 5-dose) was over 100 µM. It also gave a GI50 ([11]; Homo sapiens, RXF 393, 5-dose) of 13.1 µM, a TGI ([11]; RXF 393, 5-dose) of 65.9 µM and a TGI ([11]; RXF 393, 5-dose, listed as D - 835857) of 6.59E-5 Molar. The CC50 ([11]; RXF 393, 5-dose) was under 100 µM.
COc1ccc(-c2nc(Nc3ccccc3C(=O)O)c3ccccc3n2)cc1 [6c, 2-((2–(4-Methoxyphenyl)quinazolin-4-yl)amino)benzoic acid] was tested, and the GI% [2] was 63%, the “Growth Percent” value [2] was 37.29% and the GI% [3] was 38%. For the same molecule, the “Growth Percent” value [3] was 62.09%, the GI% [4] was 37% and the “Growth Percent” value [4] was 63.06%. For the same molecule, the GI% [5] was 28%, the “Growth Percent” value [5] was 72.03% and the GI% [6] was 41%. For the same molecule, the “Growth Percent” value [6] was 58.92%, the “Growth Percent” value [7] was 74.99% and the GI% [10] was 57%. For the same molecule, the “Growth Percent” value [10] was 42.97% and the “Growth Percent” value ([11]; RXF 393, 1.00E-5 Molar) was 68.31%.
For Cc1ccc(-c2nc(Nc3cccc(C(=O)O)c3)c3ccccc3n2)cc1 [7b, 3-((2-(p-Tolyl)quinazolin-4-yl)amino)benzoic acid], the GI% [1] was 41%, the “Growth Percent” value [1] was 58.68% and the GI% [2] was “– (Only GI% higher than 20% are shown)”. For the same molecule, the “Growth Percent” value [2] was 86.87%, the GI% [3] was “– (Only GI% higher than 20% are shown)” and the “Growth Percent” value [3] was 94.40%. The GI% [4] was 27%, the “Growth Percent” value [4] was 73.18% and the GI% [5] was “– (Only GI% higher than 20% are shown)”. The “Growth Percent” value [5] was 111.51%, the GI% [6] was “– (Only GI% higher than 20% are shown)” and the “Growth Percent” value [6] was 95.15%. For the same molecule, the GI% [7] was “– (Only GI% higher than 20% are shown)”, the “Growth Percent” value [7] was 115.15% and the GI% [8] was 51%. The “Growth Percent” value [8] was 48.97%, the “Growth Percent” value ([9]; MDA-MB-231/ATCC) was 95.55% and the GI% [10] was “– (Only GI% higher than 20% are shown)”. The “Growth Percent” value [10] was 116.40%.
With Cc1cccc(-c2nc(Nc3ccc(C(=O)O)cc3)c3ccccc3n2)c1 [8a, 4-((2-(m-Tolyl)quinazolin-4-yl)amino)benzoic acid] the GI% [1] was 32%, the “Growth Percent” value [1] was 67.75% and the GI% [2] was “– (Only GI% higher than 20% are shown)”. The “Growth Percent” value [2] was 87.55%, the GI% [3] was 24% and the “Growth Percent” value [3] was 75.96%. For the same molecule, the GI% [4] was “– (Only GI% higher than 20% are shown)”, the “Growth Percent” value [4] was 91.50% and the GI% [5] was “– (Only GI% higher than 20% are shown)”. For the same molecule, the “Growth Percent” value [5] was 101.78%, the GI% [6] was 54% and the “Growth Percent” value [6] was 45.68%. The GI% [7] was “– (Only GI% higher than 20% are shown)”, the “Growth Percent” value [7] was 91.50% and the GI% [8] was 54%. The “Growth Percent” value [8] was 45.85%, the “Growth Percent” value ([9]; MDA-MB-231/ATCC) was 93.31% and the GI% [10] was “– (Only GI% higher than 20% are shown)”. For the same molecule, the “Growth Percent” value [10] was 113.23%.
Cc1ccc(-c2nc(Nc3ccc(C(=O)O)cc3)c3ccccc3n2)cc1 [8b, 4-((2-(p-Tolyl)quinazolin-4-yl)amino)benzoic acid] was tested, and the GI% [1] was 38%, the “Growth Percent” value [1] was 61.50% and the GI% [2] was “– (Only GI% higher than 20% are shown)”. For the same molecule, the “Growth Percent” value [2] was 91.02%, the GI% [3] was 28% and the “Growth Percent” value [3] was 72.45%. The GI% [4] was 21%, the “Growth Percent” value [4] was 78.63% and the GI% [5] was “– (Only GI% higher than 20% are shown)”. For the same molecule, the “Growth Percent” value [5] was 107.52%, the GI% [6] was “– (Only GI% higher than 20% are shown)” and the “Growth Percent” value [6] was 112.03%. The GI% [7] was “– (Only GI% higher than 20% are shown)”, the “Growth Percent” value [7] was 113.38% and the GI% [8] was 58%. The “Growth Percent” value [8] was 41.73%, the “Growth Percent” value ([9]; MDA-MB-231/ATCC) was 87.83% and the GI% [10] was “– (Only GI% higher than 20% are shown)”. The “Growth Percent” value [10] was 108.74%.
